Experimental data: patent publication US5021421A, “2-(1-Piperazinyl)-4-phenylcycloalkanopyridine derivatives, processes for the production thereof, and pharmaceutical composition containing the same” (Dainippon Pharmaceutical Co., Ltd., priority 1989, dated 1991)
pIC50: −log10 of the molar value. Like-named read-outs stand apart in the source and are kept apart here.

What was measured:
[1] = U.S. Pat. No. 4,831,034; cited from earlier work
serotonin (S2) receptor = target: T1, serotonin (S2) receptor (Rattus norvegicus, UniProt P14842); assay: In vitro binding to serotonin (S2) receptor, [3H] ketanserin; set-up: species or system rats; conditions: for pIC50: [3H] ketanserin, rat brain crude synaptosome fraction
T1 construct: Crude synaptosome fractions were prepared from some brain regions in rats for receptor sources; from tissue
T1 sequence (P14842 whole entry): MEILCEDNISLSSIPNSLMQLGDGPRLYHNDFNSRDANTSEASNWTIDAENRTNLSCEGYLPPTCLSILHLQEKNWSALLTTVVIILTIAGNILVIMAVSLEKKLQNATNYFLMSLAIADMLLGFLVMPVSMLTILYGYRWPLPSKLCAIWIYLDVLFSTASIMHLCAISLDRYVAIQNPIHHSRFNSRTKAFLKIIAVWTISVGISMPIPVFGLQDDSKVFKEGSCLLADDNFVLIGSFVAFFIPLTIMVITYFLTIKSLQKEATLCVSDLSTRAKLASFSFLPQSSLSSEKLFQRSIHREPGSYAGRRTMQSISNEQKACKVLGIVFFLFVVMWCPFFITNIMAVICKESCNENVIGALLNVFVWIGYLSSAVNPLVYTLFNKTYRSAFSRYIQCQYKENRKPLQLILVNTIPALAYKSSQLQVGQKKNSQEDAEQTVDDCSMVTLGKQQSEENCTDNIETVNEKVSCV
Experimental: (§1) Dopamine (D2), serotonin (S1, S2) and adrenaline (α1) receptor binding assays were carried out according to the methods of I. Creese et al. [Eur. J. Pharmacol., 46, 377 (1977), S. J. Peroutka et al. [Mol. Pharmacol. 16, 687 (1979)], J. E. Leysen et al. [Mol. Pharmacol., 21, 301 (1982)] and D. C. U'Prichard et al. [Mol. Pharmacol., 13, 454 (1977)], respectively.
(§2) Crude synaptosome fractions were prepared from some brain regions in rats for receptor sources. Radioactive ligands used were [^3 H] spiperone (D2), [^3 H] serotonin (S1), [^3 H] ketanserin (S2) and [^3 H] WB-4101 (α1). The binding assay was performed by incubating aliquots of synaptosome fraction in buffer solution (final volume: 1 ml) containing a [^3 H] labelled ligand and a test compound. The assay was terminated by rapid filtration through Whatman GF/B glass fiber filters attached to a cell-harvester (Brandel) and radioactivity on the filters was counted in a Packard Triscarb scintillation counter. Specific binding was calculated as a difference between amounts of radioactivity in the presence and absence of an unlabelled ligand [spiperone (D2), serotonin (S1), methysergide (S2) and prazosin (α1)]. The IC50 value of the test compounds (concentration causing 50% inhibition of [^3 H] ligand specific binding) was determined by probit analysis.

dopamine (D2) receptor = target: T2, dopamine (D2) receptor (Rattus norvegicus, UniProt P61169); assay: In vitro binding to dopamine (D2) receptor, [3H] spiperone; set-up: species or system rats; conditions: for pIC50: [3H] spiperone, rat brain crude synaptosome fraction, read-out: IC50 D2
T2 construct: Crude synaptosome fractions were prepared from some brain regions in rats for receptor sources; from tissue
T2 sequence (P61169 whole entry): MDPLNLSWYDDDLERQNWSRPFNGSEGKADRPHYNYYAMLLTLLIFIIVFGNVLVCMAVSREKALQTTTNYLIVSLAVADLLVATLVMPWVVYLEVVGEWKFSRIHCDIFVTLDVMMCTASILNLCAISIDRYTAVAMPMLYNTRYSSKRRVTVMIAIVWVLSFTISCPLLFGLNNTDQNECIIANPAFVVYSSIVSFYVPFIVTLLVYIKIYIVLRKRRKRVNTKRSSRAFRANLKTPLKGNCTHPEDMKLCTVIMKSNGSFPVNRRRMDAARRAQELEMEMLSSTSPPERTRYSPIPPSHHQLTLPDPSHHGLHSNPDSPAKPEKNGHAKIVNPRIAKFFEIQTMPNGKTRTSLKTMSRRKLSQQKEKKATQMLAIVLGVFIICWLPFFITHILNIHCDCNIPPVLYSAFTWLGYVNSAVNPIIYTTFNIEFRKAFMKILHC
Experimental: as §1, §2

adrenaline (α1) receptor = assay: In vitro binding to adrenaline (α1) receptor, [3H] WB-4101; set-up: species or system rats; conditions: [3H] WB-4101, rat brain crude synaptosome fraction
Experimental: as §1, §2

mice = assay: Acute toxicity; type: in vivo, mice (Std-ddy strain); conditions: dose 500 mg/kg oral, 7 days observation
Description: A group of 5 male mice (Std-ddy strain, 25-30 g) was used. The test compound was orally administered to the test animal in the form of a 0.5% tragacanth solution or suspension, and for 7 days after the administration of the test compound, the lethality of animals was observed.

[2] = tested on: apomorphine-induced vomiting; assay: Antagonistic effect on apomorphine-induced vomiting; type: in vivo, dogs (Beagle)
How it was run: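 Beagle dogs (8–15 kg, 3–4 per group) received test compound, then 0.3 mg/kg apomorphine hydrochloride s.c. two hours later. Vomiting episodes counted over 1 h; percent inhibition calculated against a non-dosed control group.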

[3] = tested on: brain monoamine metabolites; assay: Increasing effect on concentration of brain monoamine metabolites; type: in vivo, mice (Std-ddy strain); conditions: Mus musculus, 2 h, non-dosed=100
How it was run: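 Male Std-ddy mice (25-30 g, n=5) decapitated 2 h after dosing; brain extracts analysed by HPLC with electrochemical detection for DOPAC, HVA, MOPEG and 5-HIAA. Values expressed as % of non-dosed controls (=100).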

serotonin (S1) receptor = assay: In vitro binding to serotonin (S1) receptor, [3H] serotonin; set-up: species or system rats; conditions: rat brain crude synaptosome fraction
Experimental: as §1, §2

[4] = Psychotropic / anti-psychotic (neuroleptic) activity, general statement; conditions: experiments by the present inventors
[5] = Canis lupus familiaris, sc, apomorphine 0.3 mg/kg s.c. 2 h after compound, read-out: Inhibitory ratio (apomorphine-induced vomiting)
[6] = read-out: DOPAC concentration, % of control
[7] = read-out: HVA concentration, % of control
[8] = read-out: 5-HIAA concentration, % of control
[9] = read-out: MOPEG concentration, % of control

| Structure (SMILES) | pIC50 (serotonin (S2) receptor) | pIC50 (dopamine (D2) receptor) | pIC50 (adrenaline (α1) receptor) | Number of dead animals / Number of test animals (mice) | inhibition in vivo at 0.2 mg/kg [2, 5] | pIC50 (serotonin (S1) receptor) | other results |
| --- | --- | --- | --- | --- | --- | --- | --- |
| Cc1ccc(CN2CCN(c3cc(-c4ccccc4)ccn3)CC2)cc1 [2-[4-(4-methylbenzyl)-1-piperazinyl]-4-phenylpyridine] | – | – | – | – | – | – | activity as an anti-psychotic drug or as a neuroleptic drug [1]: weak activity |
| CCN1CCN(c2cc(-c3ccc(F)cc3)c3c(n2)CCCCCC3)CC1 [Example 1a, 2-(4-ethyl-1-piperazinyl)-4-(4-fluorophenyl)-5,6,7,8,9,10-hexahydrocycloocta[b]pyridine] | 8.00 | 7.62 | 7.08 | 0/5 | 100% | – | – |
| CCN1CCN(c2cc(-c3ccc(F)cc3F)c3c(n2)CCCCCC3)CC1 [Example 2b, 2-(4-ethyl-1-piperazinyl)-4-(2,4-difluorophenyl)-5,6,7,8,9,10-hexahydrocycloocta[b] pyridine] | – | – | – | 0/5 | 100% | – | response vs control in vivo at 2 mg/kg [3, 6]: 364%; response vs control in vivo at 2 mg/kg [3, 7]: 271% |
| CCN1CCN(c2cc(-c3ccc(F)cc3)c3c(n2)CCC3)CC1 [Example 6, 2-(4-Ethyl-1-piperazinyl)-4-(4-fluorophenyl)-6,7-dihydro-5H-1-pyrindine] | 8.12 | 7.72 | 8.16 | 0/5 | – | 5.82 | response vs control in vivo at 10 mg/kg [3, 8]: 103%; response vs control in vivo at 10 mg/kg [3, 6]: 321%; response vs control in vivo at 10 mg/kg [3, 7]: 242%; response vs control in vivo at 10 mg/kg [3, 9]: 115%; inhibition in vivo at 1 mg/kg ([2]; Canis lupus familiaris, sc, dose 1.0 mg/kg, apomorphine 0.3 mg/kg s.c. 2 h after compound, read-out: Inhibitory ratio (apomorphine-induced vomiting)): 89% |
| CCN1CCN(c2cc(-c3ccc(F)cc3)c3c(n2)CCCCC3)CC1 [Example 25, 2-(4-Ethyl-1-piperazinyl)-4-(4-fluorophenyl)-6,7,8,9-tetrahydro-5H-cyclohepta[b]pyridine] | 8.64 | 7.11 | 6.92 | 0/5 | – | 5.59 | response vs control in vivo at 1 mg/kg [3, 8]: 113%; response vs control in vivo at 1 mg/kg [3, 6]: 272%; response vs control in vivo at 1 mg/kg [3, 7]: 207%; response vs control in vivo at 1 mg/kg [3, 9]: 106%; inhibition in vivo at 3 mg/kg ([2]; Canis lupus familiaris, sc, dose 3.0 mg/kg, apomorphine 0.3 mg/kg s.c. 2 h after compound, read-out: Inhibitory ratio (apomorphine-induced vomiting)): 100% |
| Cc1nc(N2CCN(c3ccccc3)CC2)cc(-c2ccc(F)cc2)c1-c1ccc(F)cc1 [Test Compound A, 4,5-Bis-(4-fluorophenyl)-6-methyl-2-(4-phenylpiperazino)pyridine, reference compound] | < 5.00 | < 5.00 | < 5.00 | – | – | – | psychotropic activity [4]: did not show any psychotropic activity; binding property to serotonin (S2) receptors (in words) (serotonin (S2) receptor): no binding property; binding property to dopamine (D2) receptors (in words) (dopamine (D2) receptor): no binding property; inhibition in vivo at 3 mg/kg ([2]; Canis lupus familiaris, sc, 2 h, read-out: Inhibitory ratio (apomorphine-induced vomiting)): 11%; effect on apomorphine-induced vomiting (in words) ([2]; dog, in vivo): no inhibitory effect |
